How the values were obtained:
Type in all cases: cell-based, human
reactive oxygen species = test: ROS analysis, flow cytometry using H2DCF-DA; conditions: engineered cells
Description: 2′7′ dichlorodihydrofluorescein diacetate (H2DCF-DA) is a non-fluorescent cell permeable compound. The endogenous esterase enzyme inside the cell cleaves the diacetate part, and it can no longer pass out of the cell. Thus it accumulates in the cell. Then H2DCF reacts with ROS to form fluorescent dichlorofluorescene (DCF) which can be measured by flow cytometry in FL1 channel. • 1. Seed cells at 3×10^5 cells per dish in 60 mm dishes and allow to grow overnight. • 2. Treat with the test compound for different period of time (1-10 hr). • 3. Maintain one dish for untreated cells, compound treated cell and positive control dish (hydrogen peroxide treated) for each time point. • 4. Incubate the cells with 10 μM of H2DCF-DA for 10 minutes at 37° C. • 5. For positive control cells, after 5 minutes of H2DCF-DA loading, add 500 μM of hydrogen peroxide and incubate for 5 minutes further. • 6. Harvest the cell by trypsinization. • 7. Wash with cold PBS-twice. • 8. Resuspend the pellet in 100 μl of PBS and transfer into 5 ml FACS tube. • 9. Add 5 μl of propidium iodide (50 μg/ml) and incubate for 10 minutes on ice in dark. • 10. Add 400 μl of PBS and analyze by flow cytometry (Becton-Dickinson). • 11. Acquire the data and analyze using CellQuest software program. • 12. Take only propidium iodiode negative cells (viable cells) for the analysis for DCF staining using the FLI channel, PI in FL3 channel, plot a quadrant chart.

[1] = tested on: BJ-TERT/LT/ST/RAS^V12 cells; test: Annexin V-FITC apoptosis assay; conditions: untreated 6%
Method: BJ-TERT/LT/ST/RAS^V12 cells were seeded at 1×10^6 cells per dish in 100 mm dishes and allowed to grow overnight. Cells were treated with erastin (5 or 10 μg/ml) for 6, 8 or 11 h. A camptothecin-treated (0.4 μg/ml) control was maintained, treated at the time of seeding for 20 hours. After the treatment, cells were harvested with trypsin/EDTA and washed once with fresh medium containing serum and then twice with phosphate buffered saline. Cells were resuspended in 1× binding buffer (BD Pharmingen) at a concentration of 1×10^6 cells/mi. 100 μl (1×10^5 cells) was incubated with 5 μl of Annexin V- FITC (BD Pharmingen) and propidium iodiode (BD Pharmingen) for 15 minutes in the dark at room temperature. Then 400 μl of the 1× binding buffer was added and the cells analyzed by flow cytometry (Becton-Dickinson). Data were acquired and analyzed using Cellquest software.

[2] = tested on: BJ-TERT/LT/ST/RAS^V12 cells; test: DNA fragmentation (DNA ladder)
[3] = tested on: active, cleaved form of caspase 3; test: Western blot for active caspase-3; conditions: BJ-TERT/LT/ST/RAS^V12 cells
Method: BJ-TERT/LT/ST/RAS^V12 cells were seeded prior to the experiment at 5×10^5 cells in 60 mm dishes. The cells were treated with 5 μg/ml erastin (9 μM) for 2, 4, 6, 8 or 10 hours. One dish was maintained for camptothecin treatment (0.4 μg/ml for 24 h) as a positive control. Cells were lysed after each time point in lysis buffer (50 mM HEPES KOH pH […] NaCl, 2 mM EDTA, 0.5% Triton X-100, 1.5 mM Na3VO4, 50 mM NaF, 10 mM sodium pyrophosphate, 10 mM sodium beta-glycerophosphate and protease inhibitor tablet (Roche)). Protein content was quantified using a Biorad protein assay reagent. Equal amounts of protein were resolved on 16% SDS-polyacrylamide gel. The electrophoresed proteins were transblotted onto a PVDF membrane, blocked with 5% milk and incubated with anti-active caspase-3 polyclonal antibody (BD Pharmingen) at 1:1500 dilution overnight at 4° C. The membrane was then incubated in anti-rabbit-HRP (Santa Cruz Biotechnology) at 1:3000 dilution for 1 hour and developed with an enhanced chemiluminescence mixture (NEN life science, Renaissance). To test for equivalent loading in each lane, blots were stripped, blocked, and probed with an anti-eIF-4E antibody (BD Transduction laboratories) at 1:1000 dilution.

[4] = tested on: BJ-TERT/LT/ST/RAS^V12 cells; test: Block of compound-induced cell death by pan-caspase inhibitor; conditions: 50 μM Boc-Asp(Ome)-fluoromethyl ketone
[5] = tested on: BJ-TERT/LT/ST/RAS^V12 cells; test: Nuclear morphology assay; conditions: 18 hours
Description: Applicants sought to characterize the type of cell death induced by CPT and erastin in tumorigenic BJ-TERT/LT/ST/RAS^V12 cells. […] To determine whether erastin or CPT induces apoptosis in their system, Applicants monitored the nuclear morphology of CPT- and erastin-treated tumorigenic cells using fluorescence microscopy. […] Since nuclear morphological change is required of apoptotic cells, Applicants conclude that cell death induced by erastin is non-apoptotic. […] Additionally, nuclei remained intact in erastin-treated tumor cells (FIG. 9).
200,000 tumorigenic BJ-TERT/LT/ST/RAS^V12 cells were seeded in 2 mL on glass coverslips in each well of a six-well dish, treated with nothing (NT), 9 μM erastin or 1.1 μM camptothecin (CPT) in growth medium for 18 hours while incubating at 37° C. with 5% CO2. Nuclei were stained with 25 μg/mL Hoechst 33342 (Molecular Probes) and viewed using an oil immersion 100× objective on a fluorescence microscope.

O=C1c2c(O)ccc(O)c2C(=O)c2c(NCCNCCO)ccc(NCCNCCO)c21 [Mitoxantrone]
formation of reactive oxygen species (ROS) (reactive oxygen species): did not observe the formation of ROS

COc1cccc2c1C(=O)c1c(O)c3c(c(O)c1C2=O)C[C@@](O)(C(=O)CO)C[C@@H]3O[C@H]1C[C@H](N)[C@H](O)[C@H](C)O1 [Doxorubicin]
formation of reactive oxygen species (ROS) (reactive oxygen species): did not observe the formation of ROS

COc1cccc2c1C(=O)c1c(O)c3c(c(O)c1C2=O)C[C@@](O)(C(C)=O)C[C@@H]3O[C@H]1C[C@H](N)[C@H](O)[C@H](C)O1 [Daunorubicin]
formation of reactive oxygen species (ROS) (reactive oxygen species): did not observe the formation of ROS

CC[C@@]1(O)C(=O)OCc2c1cc1n(c2=O)Cc2cc3ccccc3nc2-1 [Camptothecin]
percentage of cells in the M1 region (Annexin V staining) ([1]; camptothecin-treated (1 μM)): 38% | DNA fragmentation (formation of a DNA ladder) [2]: induces DNA fragmentation | activated caspase 3 (western blot) [3]: harbor activated caspase 3 | cell death blocked by pan-caspase inhibitor [4]: partially blocked | fragmented nuclei, % of total nuclei ([5]; 1.1 μM camptothecin): 10-20% | nuclear morphology (karyorhexis and margination of chromatin) ([5]; 9 μM erastin or 1.1 μM CPT): karyorhexis and margination of chromatin were clearly visible

CCOc1ccccc1-n1c(C(C)N2CCN(C(=O)COc3ccc(Cl)cc3)CC2)nc2ccccc2c1=O (stereo not shown) [Erastin]
percentage of cells in the M1 region (Annexin V staining) ([1]; erastin-treated (9 μM)): 6%
